From US6024955A, “Peptides and monoclonal antibodies” (Toagosei Co. Ltd., priority 1995, dated 2000)

Columns and labels:
[1] = test system: Human fibrosarcoma (HT-1080); assay: Antitumor test, joint use with an existing carcinostatic, HT-1080 in nude mice; settings: mitomycin alone, 6 mg/kg, tail vein
Protocol: Human fibrosarcoma (HT-1080) subcutaneously subcultured in nude mice was cut out in a section of about 2 mm square and inoculated subcutaneously into 6 nude mice of another group using a trocar. On the next day of the inoculation, the existing carcinostatic mitomycin (3 mg/kg) or cisplatin (5 mg/kg) was injected into the tail vein once, and the monoclonal antibody of the invention was injected into the tail vein at a dose of 12.5 μg/mouse every 4 days from the next day of the transplantation.
In those groups which received an existing carcinostatic alone, 3 or 6 mg/kg of mitomycin or 5 or 10 mg/kg of cisplatin was administered in a similar manner as employed in the joint administration groups (i.e. every 4 days into the tail vein).
In the group which received the monoclonal antibody alone, 12.5 μg/mouse of the monoclonal antibody was administered similarly (i.e. every 4 days into the tail vein).
The tumor volume of each mouse was calculated by measuring the diameter of the tumor with the passage of time. At the same time, changes in body weight were also observed.

MV833 antibody = settings: 20 μM peptide solution coated on plate
Protocol: The 67 peptides synthesized by the above procedures correspond to the entire region of human VPF 121. Therefore, by examining the reactivity of the 67 peptides with MV833 antibody, it is possible to identify the portion of VPF with which MV833 reacts. Then, the reactivity of the 67 peptides with MV833 antibody was examined by an enzyme immunoassay. Briefly, 20 μM peptide solutions each containing one of the 67 peptides were added to a 96-well NOS plate (Coaster) and left at room temperature for 2 hours. After each well was washed with 0.1% BSA-PBS 3 times, 2% BSA-PBS was added thereto and left at room temperature for 1 hour. After the removal of 2% BSA-PBS, MV833 (in 1% BSA-PBS solution) was added to the plate and left at room temperature for 1 hour. After each well was washed with 0.1% BSA-PBS 6 times, peroxidase-labelled sheep anti-mouse IgG (Amersham) (in 0.1% BSA-PBS) was added thereto and left at room temperature for 1 hour. After each well was washed with 0.1% BSA-PBS 6 times, 0.2 M Tris-citrate buffer (pH 5.2) containing 8.3 mg/ml orthophenylenediamine dihydrochloride and 0.01% hydrogen peroxide was added for coloring. The reaction was terminated by adding 2 N sulfuric acid and then absorbance (OD490/650) was measured.

| Compound | antitumor activity (tumor volume, FIG. 3) [1] | changes in body weight (FIG. 4) [1] | reactivity with MV833 antibody (absorbance OD490/650, FIG. 1) (MV833 antibody) |
| --- | --- | --- | --- |
| CO[C@@]12[C@H](COC(N)=O)C3=C(C(=O)C(C)=C(N)C3=O)N1C[C@@H]1N[C@@H]12 [mitomycin] | strong antitumor activity was observed | loss in body weight was also observed |  |
| SFLQHNKCECRP [Peptide 60] |  |  | reacted strongly |
| YIFKPSCVPLMR [Peptide 31] |  |  | reacted strongly |
| FKPSCVPLMRCG [Peptide 32] |  |  | reacted strongly |
| KCECRPKKDRAR [Peptide 63] |  |  | reacted strongly |
| KPSCVPLMRCGG [Peptide 33] |  |  | reacted strongly |
